# Assay results from patent publication US20020090341A1, “Method” (NYCOMED IMAGING AS, priority 1997, published 2002).
# Where two headings read alike, the source gives them in different places.
# Assays:
# [1] = system: normal and reperfused infarcted myocardium; conditions: 90 minutes post injection
# Experimental: Sprague-Dawley rats (female, 270-320 g, n=24) were subjected to occlusion of the anterior branch of the left main coronary artery for 60 minutes, followed by reperfusion for 120 minutes before injecting the test agent. A catheter was placed in the tail vein for administration of contrast media. Animals were connected to an ECG patient monitor and placed in the magnet such that the heart of each rat was at or near ioscenter. Magnetic field was optimized for a central slab of 6 mm thickness, within which the 2 mm section to be imaged was located. Inversion and slice select pulses were calibrated. Inversion recovery echo planar imaging was then used to measure baseline T1 values for myocardium and left ventricle chamber blood.
# MnDPDP was then administered at doses of 25, 50 and 100 μmole/kg by intravenous injection of 2.5, 5 and 10 ml/kg, respectively, of the test solution which contained a 10 mM solution of MnDPDP. These injections were followed by a flush of physiologic saline solution (0.9%) such that the combined volumes of test agent and saline flush was 11 ml/kg. All injected solutions were warmed before being administered and were injected slowly over 1.5 mins. T1 values were remeasured at 5 minute intervals during the first 60 minutes after injection. Occasional animals were imaged at 90 minutes for T1 determination (EPI) and for visual inspection of contrast on STIR (short TI inversion recovery) prepared spin echo images.
# [2] = system: regionally ischemic heart; conditions: for Myocardial enhancement: normal myocardium
# Experimental: Sprague-Dawley rats (250-300 g) were anaesthetised with 50 mg/kg sodium pentobarbital and mechanically ventilated after tracheostomy. For bolus injection of the contrast agent, a catheter was placed in the femoral vein. In order to produce regional ischemia, left thoracotomy was performed followed by occlusion of the anterior branch of the left coronary artery. The potential of various doses of MnDPDP in demarcating regional ischemia was determined. Four groups of animals were designed, each group (n=7-8 rats) received one bolus dose (1 ml/kg) of MnDPDP (0.005, 0.010, 0.020, or 0.040 mmol/kg). MR imaging was performed between 15-20 mins after acute coronary occlusion.
# ECG-gated inversion recovery echoplanar images were acquired using a GE Omega 2.0 T system and a home-built 5.6 cm birdcage imaging coil. A blipped EPI of 64×64 points to define a […] (FOV) of 40×40 mm was used. TE was set to 10 msec by acquiring an asymmetric echo. Inversion recovery was accomplished using a composite non-selective inversion pulse which was carefully optimized prior to administration of the contrast medium. Shortly after the occlusion of the coronary vessel (15-25 mins), IR EP imaging was used to monitor bolus passage of MnDPDP through the regionally ischemic heart. Fully relaxed T1-sensitive inversion recovery EP images (TR=5 s) were acquired in a set of 16 images. Then, 32 inversion-recovery echoplanar images every 2 secs were obtained with inversion time of 700 msecs (to nullify myocardial signal) to monitor the dynamic T1 changes in myocardial signal intensity during the passage of the contrast medium. Changes in myocardial signal as a function of time were plotted. ROIs were obtained from non-ischemic and ischemic myocardium as well as from LV chamber blood. ROIs were determined on images acquired post-contrast injection, where the ischemic region is clearly defined. Alterations in signal intensity were referred to that of fully relaxed intensity (=100%).
# At the conclusion of the imaging protocol, the presence of coronary occlusion and acute ischemia was confirmed at postmortem by injecting 0.5 ml/kg phthalocyanine blue dye intravenously. Blue dye was then allowed to circulate for 3 mins before the heart was excised.
# [3] = system: ex vivo guinea pig hearts; conditions: for T1 relaxation time: LV tissue, 0.234 T
# Experimental: Guinea pigs (450-500 g) were anaesthetised with sodium pentobarbital (intraperiotenal injection 100 mg). Hearts were rapidly excised and connected to the aortic cannula of a standard Langendorff perfusion system with conditions preset at 37° C. Perfusion with glucose-containing Krebs Henseleit's bicarbonate buffer (Krebs buffer) was maintained in the constant flow mode during the entire experiment by use of a finely adjustable pump. Under normal perfusion conditions coronary flow rate (CFR) was […] and during global, low flow ischemia 0.25 ml/min (92% reduction of normal CFR). Left ventricular (LV) developed pressure (LVDP) was measured by use of a LV fluid-filled balloon connected to a pressure transducer and recording device. At the end of the experiments excised samples from the LV were freeze-clamped, freeze-dried and prepared for analysis of LV contents of Mn metal by atomic absorbtion spectrophotometry and of ATP by high pressure liquid chromatography. Fresh, non-clamped LV samples were taken for immediate (within 30 min) measurements of tissue longitudinal (T1) relaxation time by use of a Bruker Minispec PC 110 spectrometer operating at 0.234 T and at a proton frequency of 10 MHz.
# In normal perfusion experiments (series A) hearts were subjected to a 20 min control period before being perfused for 5 min with ascending concentrations (0-3000 μM) of MnDPDP present in the Krebs buffer. This was followed by 5 min perfusion with buffer only to ensure an effective washout of residual extracellular MnDPDP. In global ischemia experiments hearts were perfused at low flow (92% CFR reduction) with normal Krebs buffer. After different durations (0, 15, 30, 90, and 120 min) of ischemia MnDPDP (1000 μM, 3000 μM) was included in the buffer for a final 5 min period of low flow ischemia. The experiments were ended by 5 min perfusion at normal flow with anoxic and calcium-free Krebs buffer to ensure washout of residual extracellular MnDPDP without reactivating normal cardiac function. In the results (series B) the ischemia durations are presented as 0-5 min, 15-20 min, 30-35 min, 90-95 min, and 120-125 min.
# [4] = MnDPDP 300 μM, versus control hearts
# [5] = MnDPDP 1000 μM, versus control hearts
# [6] = MnDPDP 3000 μM, versus control hearts
smiles,measurement,setting,value
"Cc1ncc(COP(=O)(O)O)c(CN(CCN(CC(=O)[O-])Cc2c(COP(=O)(O)O)cnc(C)c2O)CC(=O)[O-])c1O.[Mn+2] [MnDPDP, manganese (II) chelate of N,N′-bis-(pyridoxal-5-phosphate)-ethylenediamine-N,N′-diacetic acid]","SI normal/SI infarct, conventional T1 weighted images",[1]; highest dose,1.15
same,"SI normal/SI infarct, STIR sequences",[1]; lowest dose,0.85-1.3
same,"SI normal/SI infarct, conventional T1 weighted images",[1]; lowest dose (n=1),about 1.25
same,delineation of the ischemic region,[2]; 0.005 mmol/kg,insufficient to provide clear delineation of the ischemic region
same,delineation of the ischemic region,"[2]; 0.010, 0.020, and 0.040 mmol/kg",the ischemic region was identified as a region of very low signal
same,Myocardial enhancement,[2]; 5 micromole/kg bolus,23±2 % of fully relaxed images
same,Myocardial enhancement,[2]; 10 micromole/kg bolus,28±2 % of fully relaxed images
same,Myocardial enhancement,[2]; 20 micromole/kg bolus,34±5 % of fully relaxed images
same,Myocardial enhancement,[2]; 40 micromole/kg bolus,48±4 % of fully relaxed images
same,Tissue Mn content,"[3]; MnDPDP 30 μM 5 min, then 5 min washout, n = 6, mean (SD)",11.0(1.5) μmole/100 g dry wt
same,T1 relaxation time,"[3]; MnDPDP 30 μM, n = 6, mean (SD)",871(93) msec
same,Tissue Mn content,"[3]; MnDPDP 100 μM 5 min, then 5 min washout, n = 6, mean (SD)",12.2(2.4) μmole/100 g dry wt
same,T1 relaxation time,"[3]; MnDPDP 100 μM, n = 6, mean (SD)",808(81) msec
same,depression of LVDP,[3]; MnDPDP 300 μM,10%
same,Tissue Mn content,"[3]; MnDPDP 300 μM 5 min, then 5 min washout, n = 6, mean (SD)",23.2(4.1) μmole/100 g dry wt
same,fold increase in Mn content,[3]; [4],5-6 fold
same,reduction in T1,[3]; [4],40%
same,T1 relaxation time,"[3]; MnDPDP 300 μM, n = 6, mean (SD)",619(18) msec
same,Tissue Mn content,"[3]; MnDPDP 1000 μM 5 min, then 5 min washout, n = 6, mean (SD)",45.4(10.8) μmole/100 g dry wt
same,factor by which tissue Mn content was raised above the control level in non-treated hearts,[3]; MnDPDP 1000 μM at onset (0-5 min) of ischemia,2-3
same,Tissue Mn content,"[3]; MnDPDP 1000 μM during last 5 min, ischemia 0-5 min, n = 4, mean (SD)",10.5(3.6) μmole/100 g dry wt
same,Tissue Mn content,"[3]; MnDPDP 1000 μM during last 5 min, ischemia 15-20 min, n = 4, mean (SD)",9.9(2.3) μmole/100 g dry wt
same,Tissue Mn content,"[3]; MnDPDP 1000 μM during last 5 min, ischemia 30-35 min, n = 4, mean (SD)",4.3(1.6) μmole/100 g dry wt
same,Tissue Mn content,"[3]; MnDPDP 1000 μM during last 5 min, ischemia 90-95 min, n = 4, mean (SD)",5.7(2.4) μmole/100 g dry wt
same,Tissue Mn content,"[3]; MnDPDP 1000 μM during last 5 min, ischemia 120-125 min, n = 4, mean (SD)",5.6(2.3) μmole/100 g dry wt
same,fold rise in Mn content,[3]; [5],11 fold
same,reduction in T1 values,[3]; [5],55%
same,T1 relaxation time,"[3]; MnDPDP 1000 μM, n = 6, mean (SD)",461(85) msec
same,Tissue Mn content,"[3]; MnDPDP 3000 μM 5 min, then 5 min washout, n = 6, mean (SD)",70.4(14.9) μmole/100 g dry wt
same,factor by which tissue Mn content was raised above the control level in non-treated hearts,[3]; MnDPDP 3000 μM at onset (0-5 min) of ischemia,4-5
same,Tissue Mn content,"[3]; MnDPDP 3000 μM during last 5 min, ischemia 0-5 min, n = 4, mean (SD)",16.5(2.4) μmole/100 g dry wt
same,Tissue Mn content,"[3]; MnDPDP 3000 μM during last 5 min, ischemia 15-20 min, n = 4, mean (SD)",12.9(4.0) μmole/100 g dry wt
same,Tissue Mn content,"[3]; MnDPDP 3000 μM during last 5 min, ischemia 30-35 min, n = 4, mean (SD)",6.0(2.2) μmole/100 g dry wt
same,Tissue Mn content,"[3]; MnDPDP 3000 μM during last 5 min, ischemia 90-95 min, n = 4, mean (SD)",7.2(2.8) μmole/100 g dry wt
same,fold rise in Mn content,[3]; [6],17 fold
same,reduction in T1 values,[3]; [6],70%
same,T1 relaxation time,"[3]; MnDPDP 3000 μM, n = 6, mean (SD)",341(46) msec
same,"tissue Mn contents, normal perfusion conditions relative to early ischemic conditions (0-5 min)",[3]; Table 1 versus Table 3,approximately 4 times
same,LVDP after washout,[3]; following 5 min of MnDPDP washout,returns rapidly to control values
same,LVDP during perfusion,[3]; higher concentrations of MnDPDP,falls rapidly
same,tissue Mn content compared with normally perfused non-treated hearts,"[3]; ischemic durations of 30-35 min, 90-95 min, and 120-125 min",not significantly different
